# Experimental data reported in US8470765B2, “Polypeptides and antibacterial or antiseptic use of same” (AnGes MG, Inc., priority 2009, dated 2013).
# Tests used:
# [1] = test system: Bacteroides fragilis JCM 11019; assay: microbe, parasite or virus in culture; settings: JCM11019, read-out: MIC Bacteroides fragilis
# [2] = test system: Fusobacterium nucleatum JCM 11025; assay: microbe, parasite or virus in culture; settings: JCM11025, read-out: MIC Fusobacterium nucleatum
# [3] = test system: Streptococcus pyogenes JCM5674; assay: microbe, parasite or virus in culture; settings: JCM5674, read-out: MIC Streptococcus pyogenes
# [4] = test system: Micrococcus luteus NBRC13867; assay: microbe, parasite or virus in culture; settings: NBRC13867, read-out: MIC Micrococcus luteus
# [5] = test system: Salmonella enteritidis IID 604; assay: microbe, parasite or virus in culture; settings: Salmonella enterica, read-out: MIC Salmonella Enteritidis
# [6] = test system: Acinetobacter baumanni JCM6841; settings: Table 4; two tests, first/second value where not identical
# [7] = test system: Bacillus subtilis NBRC3134; assay: microbe, parasite or virus in culture; settings: NBRC3134, read-out: MIC Bacillus subtilis
# [8] = test system: Actinobacillus actinomycetemcomitans JCM2434; assay: microbe, parasite or virus in culture; settings: Aggregatibacter actinomycetemcomitans, JCM2434, read-out: MIC Actinobacillus actinomycetemcomitans
# [9] = test system: Salmonella typhimurium JCM1652; assay: microbe, parasite or virus in culture; settings: Salmonella enterica, read-out: MIC Salmonella Typhimurium
smiles,measurement,setting,value
O=C(N[C@H](CO)[C@H](O)c1ccc([N+](=O)[O-])cc1)C(Cl)Cl [chloramphenicol],MIC,[1],1 µg/mL
same,MIC,[2],0.25 µg/mL
same,MIC,[3],2 µg/mL
same,MIC,[4],1 µg/mL
same,MIC,[5],4 µg/mL
same,MIC Acinetobacter baumanni,[6],16/32
same,MIC,[7],4 µg/mL
same,MIC,[8],0.5 µg/mL
same,MIC,[9],4 µg/mL
